Results on six compounds are retold here after patent US7064119B2, “Fused bicyclic pyrimidine derivatives” (Kyorin Pharmaceutical Co., Ltd., priority 2002, dated 2006).

The target in one experiment is T1, NK1 receptor (Cavia porcellus, UniProt P30547).
T1 construct: from tissue; host or cells: isolated guinea pig ileum
Briefly: Test for NK1 receptor antagonist: substance P concentration-response in isolated guinea pig ileum, Schild analysis. The settings on record: substance P-induced contraction, 10 min pretreatment, method of Schild. On the procedure:
(1) Test for NK1 Receptor Antagonist
The method used was according to the method proposed by S. Dion et al.(Dion et al., Life Sciences 41(1987): 2269), to which minor modifications were made.
Guinea pigs were stunned by a blow on the head and were exsanguinated from the carotid artery and ilea were isolated. The ileum was mounted in an organ bath containing Tyrode's solution which was maintained at 32° C. and gased with 95% O2 and 5% CO2. The ileum was subjected to a resting tension of 1-gram and allowed to equilibrate for 20 minutes before the experiment was started. As a control, a concentration-response curve for substance P in the absence of any of test compounds was used. The NK1 receptor antagonist activity of each test compound was determined by a concentration-response curve obtained by pretreating at least three concentrations of the test compound for 10 minutes and subsequently applying substance P in a cumulative manner. The Kb values were determined according to the method of Schild and the results are shown in Table 1 (Schild Brit. J. Pharmacol. 14(1959): 48).
The composition of the Tyrode's solution was as follows: NaCl=136.9, KCl=2.7, CaCl2·2H2O=2.5, MgCl2·6H2O=1.0, NaH2PO4·2H2O=0.4, NaHCO3=11.9, glucose=11.1 (mmol/L)

The subject of another experiment is Guinea pigs. Briefly: Cystometry test on guinea pigs (spinal cord cut), effective bladder capacity. Type of experiment: in vivo. The settings on record: guinea pig. The source says:
(2) Cystometry Test on Guinea Pigs
The method used was according to the method proposed by J S. Peterson et al. (Peterson J S. et al., J. Pharmacol. Methods 21(1989): 231), to which minor modifications were made.
Guinea pigs were anesthetized with halothane and the tenth thoracic spinal cord was cut in each animal. Subsequently, both ureters were ligated and were cut on the kidney-side. Polyethylene catheters were inserted into the bladder to provide an injection pathway for physiological saline and a pathway for the measurement of intravesical pressure. Each animal was restricted in a Ballman cage and was left for more than 2 hours. Subsequently, room-temperature saline was injected through the bladder catheter into the bladder at a rate of 6 mL/hr to conduct a cystometry test. Once the effective bladder capacity was stabilized, a test compound was intravenously administered into the jugular vein. The effective bladder capacity is defined as the volume of saline injected from one urination to the next. The effect of each test compound was determined as the increase in the average bladder volume, which was determined based on the average bladder volume measured 30 minutes prior to the administration of the test compound and the average bladder volume measured every 30 minutes after the administration of the test compound.

T1 sequence (P30547 whole entry): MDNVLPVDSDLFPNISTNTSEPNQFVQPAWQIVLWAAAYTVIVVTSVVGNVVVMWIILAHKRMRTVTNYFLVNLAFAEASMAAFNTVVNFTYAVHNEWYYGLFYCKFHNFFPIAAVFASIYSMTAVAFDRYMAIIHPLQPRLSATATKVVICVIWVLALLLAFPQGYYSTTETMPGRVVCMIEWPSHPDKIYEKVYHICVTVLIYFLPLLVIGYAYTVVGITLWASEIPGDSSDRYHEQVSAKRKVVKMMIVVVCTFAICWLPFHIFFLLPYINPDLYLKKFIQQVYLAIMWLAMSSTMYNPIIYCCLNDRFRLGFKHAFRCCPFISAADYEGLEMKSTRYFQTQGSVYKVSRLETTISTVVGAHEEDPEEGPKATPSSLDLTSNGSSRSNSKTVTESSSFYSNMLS

As a reminder, the Kb is the affinity of an antagonist, worked out from how it opposes an agonist. As to `CC(=O)N1CCN(c2nc3c(c(-c4ccccc4C)n2)C(=O)N(Cc2cc(C(F)(F)F)cc(C(F)(F)F)c2)CCCN3)CC1` [Compound of Example 4, 2-(4-acetylpiperazine-1-yl)-6-[3,5-bis(trifluoromethyl)benzyl]-5,6,7,8,9,10-hexahydro-4-(2-methylphenyl)-5-oxopyrimido[4,5-b][1,5]diazocine], on NK1 receptor, the Kb stood at 0.148 nM. Also, the “Increase in bladder capacity (%)” value with Guinea pigs (dose 0.3 mg/kg i.v.) turned out to be 43.0%.

Regarding `CC(=O)N1CCN(c2nc(-c3ccccc3C)c3c(n2)N(C)CCCN(Cc2cc(C(F)(F)F)cc(C(F)(F)F)c2)C3=O)CC1` [Compound of Example 20], the Kb at NK1 receptor worked out at 0.324 nM.

As to `Cc1ccccc1-c1nc(N2CCOCC2)nc2c1C(=O)N(Cc1cc(C(F)(F)F)cc(C(F)(F)F)c1)CCCN2C` [Compound of Example 21, 6-[3,5-bis(trifluoromethyl)benzyl]-5,6,7,8,9,10-hexahydro-10-methyl-4-(2-methylphenyl)-2-(morpholine-4-yl)-5-oxopyrimido(4,5-b][1,5]diazocine], at NK1 receptor, the Kb is 0.42 nM.

For `CC(=O)N1CCN(c2nc(-c3ccccc3C)c3c(n2)N(C(C)=O)CCCN(Cc2cc(C(F)(F)F)cc(C(F)(F)F)c2)C3=O)CC1` [Compound of Example 22, 10-acetyl-2-(4-acetylpiperazine-1-yl)-6-[3,5-bis(trifluoromethyl)benzyl]-5,6,7,8,9,10-hexahydro-4-(2-methylphenyl)-5-oxopyrimido[4,5-b][1,5]diazocine], the Kb on NK1 receptor worked out at 0.0794 nM.

Turning to `COc1ccccc1-c1nc(N2CCS(=O)(=O)CC2)nc2c1C(=O)N(Cc1cc(C(F)(F)F)cc(C(F)(F)F)c1)CCCN2` [Compound of Example 28, 6-[3,5-bis(trifluoromethyl)benzyl]-2-(1,1-dioxothiomorpholine-4-yl)-5,6,7,8,9,10-hexahydro-4-(2-methoxyphenyl)-5-oxopyrimido[4,5-b][1,5]diazocine], the Kb at NK1 receptor was 0.169 nM.

With `Cc1ccc(-c2c3n(c(=O)c4ncccc24)CC[C@@H](C)CN(Cc2cc(C(F)(F)F)cc(C(F)(F)F)c2)C3=O)cc1` [TAK-637], the Kb at NK1 receptor was determined as 0.269 nM. Further, the “Increase in bladder capacity (%)” value is recorded as 12.0% in the experiment with Guinea pigs (dose 0.3 mg/kg i.v.), 23.8% in the experiment with Guinea pigs (dose 1 mg/kg i.v.) and 20.5% in the experiment on Guinea pigs (dose 3 mg/kg i.v.).
